Reference: patent EP0414806B1, “HIGH RATIO ACTIVE AGENT:LIPID COMPLEX” (THE LIPOSOME COMPANY, INC., priority 1988, dated 1989)

Columns and labels:
[1] = Serum levels of cefazolin after a single intravenous dose; format: in vivo, mice
Protocol: (§1) The antibacterial activity was measured by an agar well diffusion bioassay, though other assays for antibacterial activity or chemical, or immunological assays for the drug substance are known to those skilled in the art. Briefly, the agar well diffusion bioassay used here were performed by cutting wells into an agar such as Trypticaso Soy Agar (Difco., Detroit, MI) that were previously seeded with a test bacteria such as Bacillus subtilis (ATCC #6633). The wells were filled with a small amount of test material here about 50ul of the test sample, and the agar plates were incubated. Bacillus subtilis incubation was for about 16-24 hours at about 35°C. Growth of a bacterial "lawn" around the well was inhibited by antibiotic present in the agar as diffused from the test sample. The diameters of the zones of inhibited growth around the wells were proportional to the concentration of antibiotic in the test sample and were quantitated by comparison with known, standard antibiotic solutions.
Both cephapirin and cefazolin display prolonged activity in serum and activity at a higher level by the cephalosporin:lipid complex preparation as compared to the free drug. […] Extended prophylactic activity in the serum can also be achieved by subcutaneous administration of a cephalosporin:lipid complex antibiotic.
Intravenous injection of a single 100mg/kg dose of free cefazolin dosium in mice results in a mean serum concentration of 8 to 20ug/ml at one hour post dose (Fig. 9).

[2] = system: many susceptible organisms; conditions: for many susceptible organisms; cited from earlier work
[3] = Serum levels of cephapirin activity after subcutaneous or intravenous administration; format: in vivo, mice
Protocol: as §1
Cephapirin activity in the serum of mice was determined at intervals after subcutaneous or intravenous administration of free or complexed drug. […] Maximal activity was found in the serum of mice given free cephapirin (by either route) at the earliest time points examined (one half to one hour post-injection). […] With a 200 mg/kg dose, serum levels were 10 ug/ml or greater for 24 hours after injection. […]

[4] = system: S. aureus; test: Staphylococcal Septicemia Model; format: in vivo, Mice; conditions: for % Survival at 72 hours: 10 mice
Protocol: Staphylococcal Septicemia Model. The S. aureus inoculum was prepared as for the abscess model. Mice were inoculated intraperitoneally with 2 x 10⁸ CFU in 5% hog/mucin. Treatment was given before or after infection. […]
The effect of free and CHStris cephalosporin:lipid complex cephapirin was compared in an acute staphylococcus septicemia model.

[5] = system: S. typhimurium (ATCC #14028); test: Salmonella typhimurium Septicemia Model; format: in vivo, Mice; conditions: 700 CFU intravenously; treatment on days 2 and 4 post-inoculation; groups of 10
Protocol: Salmonella typhimurium Septicemia Model: S. typhimurium (ATCC #14028) was grown in trypticase soy broth at 35°C overnight. Aliquots of this suspension were frozen and maintained at -70°C. For use, cultures were thawed and diluted to contain 700 CFU/ml in 0.9% saline. Mice were inoculated intravenously (0.1 ml) via the lateral tail vein. Treatment was given at various times after infection. Mortality was monitored daily for two weeks.
Mice (in groups of 10) that were inoculated intravenously with 700 CFU of S. typhimurium and received no treatment died within 6-8 days after infection (Fig. 11). […] In this case, the cephalosporin:lipid complex preparation was not washed so that 30% of the administered dose was encapsulated.

[6] = Tissue distribution of cephapirin activity after intravenous administration (agar well diffusion bioassay); format: in vivo, mice; conditions: 200 mg/kg intravenous; for concentration at 1 h / concentration at 3 h / concentration at 7 h / concentration at 10 h / concentration at 24 h: mouse
Protocol: as §1

[7] = system: S. aureus (ATCC #29740); test: In vitro minimal inhibitory concentration by micro-titer dilution method; format: cell-based; conditions: Staphylococcus aureus, ATCC29740
[8] = system: S. aureus (ATCC #29740); test: Staphylococcal Abscess Model; format: in vivo, Mice (out-bred CD-1 males); conditions: single dose (200 mg/kg)
Protocol: Staphylococcal Abscess Model. S. aureus (ATCC #29740) was grown overnight at 30°C in trypticase soy broth. Aliquots of this suspension were frozen at -70°C. […] For use, cultures were thawed and diluted with saline to contain the desired number of colony forming units (CFU) per ml. Mice (out-bred CD-1 males) were injected subcutaneously with 0.1 ml of S. aureus suspension in the abdominal area. Treatment with free or encapsulated drug was given before or after infection. At four days after infection, mice were killed by cervical dislocation, the abscesses were carefully dissected out and their diameters measured.
To determine the effect of treatment on abscess development, mice were given a single intravenous or subcutaneous injection of free or complexed cephapirin at various times before or after injection.

[9] = in vivo; conditions: mouse, iv, 924 mg/kg
Protocol: Contrast agents were tested in mice by injecting a single intravenous dose of free or complexed contrast agent (diatrizoate) via the tail vein. […] The specific activity of the doses were about 10000 c/mg I.

In the case of cefazolin sodium [free cefazolin], the mean serum concentration ([1]; mouse, in vivo, iv, 100 mg/kg, 1 h) is reported as 8000 to 20000 ng/mL, the serum level ([1]; mouse, in vivo, iv, 100 mg/kg, 2 h) is reported as “approximately 2 ug/ml” and the serum level ([1]; single 100mg/kg intravenous dose, at 3 hours after administration) is reported as “below the level of detection”. The MICp [2] was “about 0.5 ug (base weight)/ml (plasma or serum)” and the MICt [2] was “about 0.5 ug (base weight)/mg (spleen)”.
For `CC(=O)OCC1=C(C(=O)O)N2C(=O)[C@@H](NC(=O)CSc3ccncc3)[C@H]2SC1` [Free Cephapirin, cephapirin sodium], the “activity in the serum” value ([3]; at 3 hours or later) was “no activity was detectable”, the “half-life of free drug” value ([3]; serum, both intravenous and sub-cutaneous administration, estimated) was “approximately 20 minutes” and the “% Survival at 72 hours” value ([4]; treated subcutaneously -1 hour, 50 mg/kg) was 100%. The “% Survival at 72 hours” value ([4]; treated subcutaneously -1 hour, 100 mg/kg) was 100%, the “% Survival at 72 hours” value ([4]; treated subcutaneously -1 hour, 200 mg/kg) was 100% and the “% Survival at 72 hours” value ([4]; treated subcutaneously -4 hour, 50 mg/kg) was 0%. The “% Survival at 72 hours” value ([4]; treated subcutaneously -4 hour, 100 mg/kg) was 10%, the “% Survival at 72 hours” value ([4]; treated subcutaneously -4 hour, 200 mg/kg) was 0% and the survival ([4]; treated subcutaneously at one hour before infection, end of the experiment (14 days)) was “survived until the end of the experiment”. For the same molecule, the survival ([4]; treatment at four hours before infection) was “no effect on survival”, the survival [5] was “did not prolong survival” and the activity in tissues ([6]; at 3 hours or later) was “No activity was detected”. For the same molecule, the concentration at 1 h ([6]; KIDNEY, time 1 (hours after injection), mean of 3 to 5 mice ± S.E.M.) was 49000 ± 8000 ng/g, the concentration at 3 h ([6]; KIDNEY, mean ± S.E.M.) was less than 500 ng/g and the concentration at 7 h ([6]; KIDNEY, mean ± S.E.M.) was less than 500 ng/g. For the same molecule, the concentration at 10 h ([6]; KIDNEY, mean ± S.E.M.) was less than 500 ng/g, the concentration at 24 h ([6]; KIDNEY, mean ± S.E.M.) was less than 500 ng/g and the concentration at 1 h ([6]; LIVER, time 1, mean ± S.E.M.) was 46000 ± 12000 ng/g. The concentration at 3 h ([6]; LIVER, mean ± S.E.M.) was less than 500 ng/g, the concentration at 7 h ([6]; LIVER, mean ± S.E.M.) was less than 500 ng/g and the concentration at 10 h ([6]; LIVER, mean ± S.E.M.) was less than 500 ng/g. For the same molecule, the concentration at 24 h ([6]; LIVER, mean ± S.E.M.) was less than 500 ng/g, the concentration at 1 h ([6]; SPLEEN, time 1, mean ± S.E.M.) was less than 500 ng/g and the concentration at 3 h ([6]; SPLEEN, mean ± S.E.M.) was less than 500 ng/g. The concentration at 7 h ([6]; SPLEEN, mean ± S.E.M.) was less than 500 ng/g, the concentration at 10 h ([6]; SPLEEN, mean ± S.E.M.) was less than 500 ng/g and the concentration at 24 h ([6]; SPLEEN, mean ± S.E.M.) was less than 500 ng/g. The MIC [7] was 0.05 to 0.1 µg/mL, the “effect on abscess size” value ([8]; four hours before infection (complex: up to four hours before)) was “no effect on abscess size” and the “effect on abscess size” value ([8]; one hour after infection) was “significantly reduces or prevents abscess development”. For the same molecule, the “effect on abscess size” value ([8]; one hour before infection) was “reduced abscess size slightly”.
Molecule `CC(=O)Nc1c(I)c(NC(C)=O)c(I)c(C(=O)O)c1I` [free diatrizoate, diatrizoate] has a concentration at 0.5 h [9] of 2.8e+06 ng/g, a concentration at 1 h [9] of 800000 ng/g and a concentration at 1.5 h [9] of 300000 ng/g.
